Values of other authors, collected in patent US20260207574A1, “Pharmaceutical composition of pitolisant hydrochloride and Their Process for the preparation” (MSN Laboratories Private Limited, R & D Center, priority 2022, published 2026).
Where a name gives a salt, the structure may show the parent alone.

Key:
[1] = until 75% RH; as per EMA
[2] = leads to N-oxide derivative as main degradation product; as per EMA

| solubility in water until pH 7.5 (water, until pH 7.5, as per EMA) | hygroscopicity [1] | solubility in acetone (acetone) | solubility in cyclohexane (cyclohexane) | solubility in ethanol (ethanol) | solubility in methylene chloride (methylene chloride) | solubility in water (water) | SMILES | sensitivity to oxidative conditions [2] |
| --- | --- | --- | --- | --- | --- | --- | --- | --- |
| very soluble | not hygroscopic | – | – | – | – | – | Clc1ccc(CCCOCCCN2CCCCC2)cc1 [pitolisant] | sensitive to excessive oxidative conditions |
| – | – | freely soluble | practically insoluble | very soluble | very soluble | very soluble | Clc1ccc(CCCOCCCN2CCCCC2)cc1 [Pitolisant hydrochloride, 1-{3-[3-(4-chlorophenyl)propoxy]propyl} piperidine, hydrochloride] | – |
